Source: PubChem BioAssay (NCI)
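At the GI50, growth is halved. The concentration for full growth arrest is given as TGI.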

Columns and labels:
Assay in all cases: growth of human tumour cells (NCI), 384-well format
[1] = tested on: SF-539 CNS
[2] = tested on: MDA-MB-231 breast
[3] = tested on: A498 renal
[4] = tested on: SNB-75 CNS
[5] = tested on: M14 melanoma
[6] = tested on: BT-549 breast
[7] = tested on: OVCAR-4 ovarian
[8] = tested on: UO-31 renal
[9] = tested on: SF-295 CNS
[10] = tested on: SW-620 colon
[11] = tested on: DU-145 prostate
[12] = tested on: K-562 leukemia
[13] = tested on: HOP-92 NSCLC
[14] = tested on: KM12 colon
[15] = tested on: HCT-116 colon
[16] = tested on: HL-60(TB) leukemia
[17] = tested on: CAKI-1 renal
[18] = tested on: NCI-H322M lung
[19] = tested on: UACC-257 melanoma
[20] = tested on: MDA-MB-468 breast
[21] = tested on: NCI-H23 lung
[22] = tested on: HT29 colon
[23] = tested on: IGROV1 ovarian
[24] = tested on: SK-OV-3 ovarian
[25] = tested on: MALME-3M melanoma
[26] = tested on: ACHN renal
[27] = tested on: SK-MEL-5 melanoma
[28] = tested on: MOLT-4 leukemia
[29] = tested on: SNB-19 CNS
[30] = tested on: T-47D breast
[31] = tested on: UACC-62 melanoma
[32] = tested on: NCI-H460 NSCLC
[33] = tested on: SK-MEL-2 melanoma
[34] = tested on: OVCAR-3 ovarian
[35] = tested on: HCT-15 colon
[36] = tested on: COLO 205 colon
[37] = tested on: OVCAR-8 ovarian
[38] = tested on: SN12C renal
[39] = tested on: 786-0 renal
[40] = tested on: NCI-H522 lung
[41] = tested on: SK-MEL-28 melanoma
[42] = tested on: HOP-62 NSCLC
[43] = tested on: HS 578T breast
[44] = tested on: A549 NSCLC
[45] = tested on: RXF 393 renal
[46] = tested on: SR leukemia
[47] = tested on: NCI-H226 lung
[48] = tested on: OVCAR-5 ovarian
[49] = tested on: SF-268 CNS
[50] = tested on: MDA-MB-435 melanoma
[51] = tested on: PC-3 prostate
[52] = tested on: MCF7 breast
[53] = tested on: EKVX NSCLC
[54] = tested on: TK-10 renal
[55] = tested on: U251 glioblastoma

C=CC(=O)N1CCN([C@@H](CC2CC2)c2ccc([C@H](C)Nc3ncc4c(n3)N(CC)C(=O)OC4)cc2)CC1
GI50 [1]: 11.4 µM | TGI [1]: 23.5 µM | GI50 [2]: 13.9 µM | TGI [2]: 26.8 µM | GI50 [3]: 12 µM | TGI [3]: 24.4 µM | GI50 [4]: 7.22 µM | TGI [4]: 20 µM | GI50 [5]: 14.3 µM | TGI [5]: 27.3 µM | GI50 [6]: 5830 nM | TGI [6]: 18.6 µM | GI50 [7]: 13.3 µM | TGI [7]: 26.1 µM | GI50 [8]: 13.9 µM | TGI [8]: 26.9 µM | GI50 [9]: 35.3 µM | TGI [9]: > 100000 nM | GI50 [10]: 13.5 µM | TGI [10]: 26.4 µM | GI50 [11]: 12.7 µM | TGI [11]: 25.3 µM | GI50 [12]: 3.7 µM | TGI [12]: 16 µM | GI50 [13]: 8.05 µM | TGI [13]: 20.7 µM | GI50 [14]: 15.1 µM | TGI [14]: 28.5 µM | GI50 [15]: 6.57 µM | TGI [15]: 19.7 µM | GI50 [16]: 1820 nM | TGI [16]: 3.32 µM | GI50 [17]: 11.4 µM | TGI [17]: 23.6 µM | GI50 [18]: 14 µM | TGI [18]: 27.3 µM | GI50 [19]: 13.8 µM | TGI [19]: 26.8 µM | GI50 [20]: 2820 nM | TGI [20]: 7.69 µM | GI50 [21]: 15.1 µM | TGI [21]: 61 µM | GI50 [22]: 14.8 µM | TGI [22]: 28 µM | GI50 [23]: 10.3 µM | TGI [23]: 22.1 µM | GI50 [24]: 17.9 µM | TGI [24]: 37.9 µM | GI50 [25]: 19 µM | TGI [25]: 33.1 µM | GI50 [26]: 13.9 µM | TGI [26]: 26.8 µM | GI50 [27]: 13.3 µM | TGI [27]: 30.1 µM | GI50 [28]: 1890 nM | TGI [28]: 3.43 µM | GI50 [29]: 17.2 µM | TGI [29]: 31.1 µM | GI50 [30]: 13.9 µM | TGI [30]: 28 µM | GI50 [31]: 10.6 µM | TGI [31]: 22.4 µM | GI50 [32]: 5.15 µM | TGI [32]: 17 µM | GI50 [33]: 10.3 µM | TGI [33]: 22 µM | GI50 [34]: 10.2 µM | TGI [34]: 21.8 µM | GI50 [35]: 12 µM | TGI [35]: 28.9 µM | GI50 [36]: 17.6 µM | TGI [36]: 31.5 µM | GI50 [37]: 12.7 µM | TGI [37]: 26.1 µM | GI50 [38]: 16.2 µM | TGI [38]: 29.8 µM | GI50 [39]: 12.9 µM | TGI [39]: 25.7 µM | GI50 [40]: 1360 nM | TGI [40]: 4.12 µM | GI50 [41]: 16.6 µM | TGI [41]: 30.2 µM | GI50 [42]: 10 µM | TGI [42]: 27.9 µM | GI50 [43]: 6.9 µM | TGI [43]: 19.6 µM | GI50 [44]: 25.3 µM | TGI [44]: > 100000 nM | GI50 [45]: 2520 nM | TGI [45]: 12.5 µM | GI50 [46]: 2940 nM | TGI [46]: 8.8 µM | GI50 [47]: 15.9 µM | TGI [47]: 36.1 µM | GI50 [48]: 16.1 µM | TGI [48]: 30.4 µM | GI50 [49]: 14.4 µM | TGI [49]: 27.5 µM | GI50 [50]: 14.3 µM | TGI [50]: 27.4 µM | GI50 [51]: 10.8 µM | TGI [51]: 22.7 µM | GI50 [52]: 9.04 µM | TGI [52]: > 100000 nM | GI50 [53]: 16.4 µM | TGI [53]: > 100000 nM | GI50 [54]: 4360 nM | TGI [54]: 16.6 µM | GI50 [55]: 15.4 µM | TGI [55]: 33.4 µM

CC[C@@H]1C(=O)N(C)c2cnc(Nc3ccc(C(=O)NC4CCC(N5CCN(CC6CC6)CC5)CC4)cc3OC)nc2N1C(C)C (stereo partly drawn)
GI50 [1]: 0.0305 µM | TGI [1]: 0.159 µM | GI50 [2]: 0.0424 µM | TGI [2]: 1.79 µM | GI50 [3]: 0.0696 µM | TGI [3]: 1.26 µM | GI50 [4]: 0.0714 µM | TGI [4]: 2.1 µM | GI50 [6]: 19.6 nM | TGI [6]: 0.159 µM | GI50 [7]: 0.222 µM | TGI [7]: 1.12 µM | GI50 [8]: 0.589 µM | TGI [8]: 1.87 µM | GI50 [9]: 0.0314 µM | TGI [9]: 1510 nM | GI50 [10]: < 0.01 µM | TGI [10]: 0.107 µM | GI50 [11]: 0.0166 µM | TGI [11]: 1.2 µM | GI50 [12]: < 0.01 µM | TGI [12]: 0.0238 µM | GI50 [13]: 0.0969 µM | TGI [13]: 1.7 µM | GI50 [14]: 0.0103 µM | TGI [14]: 0.0507 µM | GI50 [15]: < 0.01 µM | TGI [15]: 1.03 µM | GI50 [16]: < 10 nM | TGI [16]: < 0.01 µM | GI50 [17]: 0.1 µM | TGI [17]: 1.54 µM | GI50 [18]: 0.066 µM | TGI [18]: 1.1 µM | GI50 [19]: 1.16 µM | TGI [19]: 2.39 µM | GI50 [20]: < 10 nM | TGI [20]: < 0.01 µM | GI50 [21]: < 0.01 µM | TGI [21]: 0.0282 µM | GI50 [22]: < 0.01 µM | TGI [22]: 0.0111 µM | GI50 [23]: 0.0442 µM | TGI [23]: 1.17 µM | GI50 [24]: 0.0213 µM | TGI [24]: 0.176 µM | GI50 [25]: 0.0446 µM | TGI [25]: 1.76 µM | GI50 [26]: 0.0892 µM | TGI [26]: 1.66 µM | GI50 [27]: 0.0147 µM | TGI [27]: 0.127 µM | GI50 [28]: < 10 nM | TGI [28]: < 0.01 µM | GI50 [29]: 0.0968 µM | TGI [29]: 2.97 µM | GI50 [30]: 0.191 µM | TGI [30]: 0.897 µM | GI50 [31]: 0.0279 µM | TGI [31]: 1.53 µM | GI50 [32]: < 0.01 µM | TGI [32]: 1.28 µM | GI50 [33]: < 0.01 µM | TGI [33]: 0.0267 µM | GI50 [34]: < 0.01 µM | TGI [34]: 0.145 µM | GI50 [35]: 0.0358 µM | TGI [35]: 0.549 µM | GI50 [36]: < 0.01 µM | TGI [36]: 1.31 µM | GI50 [37]: 0.0181 µM | TGI [37]: 0.0385 µM | GI50 [38]: 0.232 µM | TGI [38]: 3.34 µM | GI50 [39]: 0.0907 µM | TGI [39]: 1.15 µM | GI50 [40]: < 10 nM | TGI [40]: < 0.01 µM | GI50 [41]: 0.0876 µM | TGI [41]: 2.12 µM | GI50 [42]: 0.0233 µM | TGI [42]: 1.16 µM | GI50 [43]: 0.0195 µM | TGI [43]: 0.0497 µM | GI50 [44]: 0.0416 µM | TGI [44]: 1040 nM | GI50 [45]: < 10 nM | TGI [45]: 0.0106 µM | GI50 [46]: < 10 nM | TGI [46]: < 0.01 µM | GI50 [47]: 0.151 µM | TGI [47]: 1.75 µM | GI50 [48]: 0.0389 µM | TGI [48]: 1.71 µM | GI50 [49]: 0.0321 µM | TGI [49]: 1.31 µM | GI50 [50]: < 0.01 µM | TGI [50]: 0.0137 µM | GI50 [51]: 0.0534 µM | TGI [51]: 2.63 µM | GI50 [52]: 0.011 µM | TGI [52]: 1270 nM | GI50 [53]: 0.0371 µM | TGI [53]: 235 nM | GI50 [54]: 66.6 nM | TGI [54]: 1.39 µM | GI50 [55]: 0.0408 µM | TGI [55]: 1.42 µM
